Test results taken from US7763752B2, “Amino alcohol derivatives, salts thereof and immunosuppresive agents” (Kyorin Pharmaceutical Co., Ltd., priority 2002, dated 2010).
Structures can show the parent of a compound that is named as a salt. One block for each compound: values may come before it.

How the values were obtained:
[1] = test system: Host vs Graft Reaction in Mice; assay: Inhibitory effects of test compounds on host vs graft reaction in mice (popliteal lymph node weight); format: in vivo, C3H/HeN mice
Description: Inhibitory Effects of Test Compounds on Host vs Graft Reaction in Mice
This experiment was performed according to the method described in Transplantation 55(3) (1993): 578-591. Spleens were collected from 7 to 12 week old male BALB/c mice (available from CLEA JAPAN Inc., CHARLES RIVER JAPAN Inc., or JAPAN SLC Inc.). The spleens were placed in an RPMI-1640 medium (SIGMA, GIBCO […] Inc., or IWAKI GLASS Co., Ltd.) and were gently pressed between two slide glasses and then passed through a cell strainer (70 μm, Falcon) to form a cell suspension. The suspension was then centrifuged and the supernatant was discarded. An ammonium chloride-Tris isotonic buffer was added to the suspension to lyse erythrocytes. The cells were then centrifuged three times in RPMI-1640 medium for washing and were resuspended in an RPMI-1640 medium. To this suspension, mitomycin C (KYOWA HAKKO KOGYO Co., Ltd.) was added to a final concentration of 25 μg/mL and the suspension was incubated for 30 minutes at 37° C. in a 5% CO2 atmosphere. The cells were centrifuged three times in RPMI-1640 medium for washing and were resuspended in an RPMI-1640 medium so that the medium would contain 2.5×10^8 cells/mL. This suspension served as a “stimulation cell suspension.” Using a 27 G needle, along with a microsyringe (Hamilton), 20 μL (5×10^6 cells/mouse) of the stimulation cell suspension was subcutaneously injected into the right hind footpad of 6 to 12 week old male C3H/HeN mice (CLEA JAPAN Inc., CHARLES RIVER JAPAN Inc., or JAPAN SLC Inc.). As a normal control group, a group of mice were injected with RPMI-1640 medium alone. 4 days after the injection, right popliteal lymph nodes were collected and were weighed on a Mettler AT201 electronic scale (METTLER TOLEDO Co., Ltd.). Each animal was intraperitoneally administered a test compound once a day for four consecutive days starting on the day of the injection of the stimulation cells (i.e., total of 4 times). As a control group, a group of the animals were administered the same solvent as that used in the preparation of each test compound.

[2] = Mus musculus, ip, dose 0.1 mg/kg
[3] = Mus musculus, ip, dose 0.03 mg/kg

melting point: 154 to 156 °C
Compound: Cl.NC(CO)CCCc1ccc(S(=O)(=O)c2cccc(OCc3ccccc3)c2)cc1Cl (stereo not shown)

melting point: 166 to 168 °C
Compound: Cl.NC(CO)CCCc1ccc(Sc2cccc(C(F)(F)F)c2)cc1Cl (stereo not shown)

Compound: CCC(N)(CO)CCCc1ccc(Sc2cccc(OCc3ccccc3)c2)cc1Cl (racemic) [Example 188, (±)-2-amino-5-[4-(3-benzyloxyphenylthio)-2-chlorophenyl]-2-ethylpentane-1-ol hydrochloride]
inhibition in vivo at 0.1 mg/kg [1, 2]: 78%

Compound: CCC(N)(CO)CCc1ccc(Sc2cccc(OCc3ccccc3)c2)cc1Cl (racemic) [Example 194, (±)-2-amino-4-[4-(3-benzyloxyphenylthio)-2-chlorophenyl]-2-ethylbutane-1-ol]
inhibition in vivo at 0.1 mg/kg [1, 2]: 70%

Compound: CC(N)(CO)CCCc1ccc(Sc2cccc(OCc3ccccc3)c2)cc1Cl (single isomer, unassigned; (+)) [Example 184, (+)-2-amino-5-[4-(3-benzyloxyphenylthio)-2-chlorophenyl]-2-methylpentane-1-ol]
Inhibition (%) ([1]; dose 0.1 mg/kg): 45%

Compound: CC(N)(CO)CCCc1ccc(Sc2cccc(OCc3ccccc3)c2)cc1Cl (single isomer, unassigned; (+)) [Example 185, (+)-2-amino-5-[4-(3-benzyloxyphenylthio)-2-chlorophenyl]-2-methylpentane-1-ol]
Inhibition (%) ([1]; dose 0.1 mg/kg): 88%

Compound: CCC(N)(CO)CCCc1ccc(Sc2cccc(OCc3ccccc3)c2)cc1Cl (single isomer, unassigned; (+)) [Example 189, (+)-2-amino-5-[4-(3-benzyloxyphenylthio)-2-chlorophenyl]-2-ethylpentane-1-ol]
inhibition in vivo at 0.03 mg/kg [1, 3]: 71%

Compound: CC(N)(CO)CCc1ccc(Sc2cccc(OCc3ccccc3)c2)cc1Cl.Cl (single isomer, unassigned; (+)) [Example 191, (+)-2-amino-4-[4-(3-benzyloxyphenylthio)-2-chlorophenyl]-2-methylbutane-1-ol hydrochloride]
Inhibition (%) ([1]; dose 0.1 mg/kg, hydrochloride): 41%

Compound: CC(N)(CO)CCc1ccc(Sc2cccc(OCc3ccccc3)c2)cc1Cl.Cl (single isomer, unassigned; (+)) [Example 192, (+)-2-amino-4-[4-(3-benzyloxyphenylthio)-2-chlorophenyl]-2-methylbutane-1-ol hydrochloride]
Inhibition (%) ([1]; dose 0.1 mg/kg, hydrochloride): 86%

melting point: 55 to 57 °C
Compound: CCCC(N)(CO)CCCc1ccc(Sc2cccc(OCc3ccccc3)c2)cc1Cl.Cl (single isomer, unassigned; (+)) [Example 209, (+)-2-amino-5-[4-(3-benzyloxyphenylthio)-2-chlorophenyl]-2-propylpentane-1-ol]
Inhibition (%) ([1]; dose 0.03 mg/kg): 71%

Compound: CCC(N)(CO)CCc1ccc(Sc2cccc(OCc3ccccc3)c2)cc1Cl (single isomer, unassigned; (-)) [Example 196, (−)-2-amino-4-[4-(3-benzyloxyphenylthio)-2-chlorophenyl]-2-ethylbutane-1-ol]
inhibition in vivo at 0.03 mg/kg [1, 3]: 63%

Compound: OCC(CCCc1ccc(Oc2cccc(C(F)(F)F)c2)cc1)Nc1ccccc1 (stereo not shown) [Example 127, 2-phenylamino-5-[4-(3-trifluoromethylphenoxy)phenyl]pentane-1-ol]
inhibition in vivo at 10 mg/kg ([1]; Mus musculus, ip, dose 10 mg/kg): 57%

Compound: CC(O)C(CCCc1ccc(Oc2cccc(OCc3ccccc3)c2)cc1Cl)NC(=O)OC(C)(C)C (stereo not shown) [Example 131, 6-[4-(3-benzyloxyphenoxy)-2-chlorophenyl]-3-t-butoxycarbonylaminohexane-2-ol]
inhibition in vivo at 0.3 mg/kg ([1]; Mus musculus, ip): 57%

Compound: CC(O)C(N)CCCc1ccc(Sc2cccc(OCc3ccccc3)c2)cc1Cl (stereo not shown) [Example 135, 3-amino-6-[4-(3-benzyloxyphenylthio)-2-chlorophenyl]hexane-2-ol hydrochloride]
inhibition in vivo at 1 mg/kg ([1]; Mus musculus, ip, dose 1 mg/kg): 69%

Compound: NC(CO)(CCO)CCCc1ccc(Sc2cccc(OCc3ccccc3)c2)cc1Cl (stereo not shown) [Example 148, 3-amino-6-[4-(3-benzyloxyphenylthio)-2-chlorophenyl]-3-hydroxymethylhexanol hydrochloride]
inhibition in vivo at 0.3 mg/kg ([1]; Mus musculus, ip): 71%

Compound: NC(CO)(CCCO)CCCc1ccc(Sc2cccc(OCc3ccccc3)c2)cc1Cl (stereo not shown) [Example 151, 4-amino-7-[4-(3-benzyloxyphenylthio)-2-chlorophenyl]-4-hydroxymethylheptanol hydrochloride]
inhibition in vivo at 0.03 mg/kg [1, 3]: 65%

Compound: CCCC(N)(CO)CCCc1ccc(Sc2cccc(OCc3ccccc3)c2)cc1Cl (stereo not shown) [Example 197]
inhibition in vivo at 0.03 mg/kg [1, 3]: 54%

melting point: 78 to 81 °C
Compound: CC(=O)NC(CO)CCc1ccc(Sc2cccc(OCc3ccccc3)c2)cc1Cl (stereo not shown) [Example 201, 2-acetylamino-4-[4-(3-benzyloxyphenylthio)-2-chlorophenyl]butane-1-ol]

Compound: C#CCC(N)(CO)CCCc1ccc(Sc2cccc(OCc3ccccc3)c2)cc1Cl (stereo not shown) [Example 222, 2-amino-5-[4-(3-benzyloxyphenylthio)-2-chlorophenyl]-2-propargylpentane-1-ol hydrochloride]
inhibition in vivo at 0.3 mg/kg ([1]; Mus musculus, ip): 57%

Compound: CC(C)CC(N)(CO)CCCc1ccc(Sc2cccc(OCc3ccccc3)c2)cc1Cl (stereo not shown) [Example 223, 2-amino-5-[4-(3-benzyloxyphenylthio)-2-chlorophenyl]-2-isobutylpentane-1-ol hydrochloride]
inhibition in vivo at 0.3 mg/kg ([1]; Mus musculus, ip): 70%

Compound: CCC(N)=C(CO)CCCc1ccc(Sc2cccc(OCc3ccccc3)c2)cc1Cl [Example 227, 3-amino-7-[4-(3-benzyloxyphenylthio)-2-chlorophenyl]-4-hydroxymethyl-3-heptene hydrochloride]
inhibition in vivo at 0.3 mg/kg ([1]; Mus musculus, ip): 58%
